# Patent US20110064773A1, “PHARMACEUTICAL COMPOSITIONS COMPRISING A THYROID HORMON AND THEIR THERAPEUTIC USE” (UNIVERSITE JOSEPH FOURIER, priority 2007, published 2011)
# Entries after “also recorded” stand apart in the source; their conditions may differ.
# Experiments:
# Format in all cases: in vivo, rat
# [1] = system: muscle mitochondria; test: Rate of muscle mitochondrial oxygen consumption (JO2) of treated Wistar rats; conditions: 250 μg/kg BW/day, vs placebo
# Experimental: The major part of the liver and the red part of each quadriceps were rinsed, and chopped into isolation medium (250 mM sucrose, 20 mM Tris-HCl and 1 mM EGTA-Tris, pH 7.4). Nuclei and cell debris were removed by centrifugation at 800 g for 10 min. Mitochondria were then isolated from the supernatant by spinning twice at 8,000 g for 10 minutes. The mitochondrial pellet was resuspended in 0.5 ml of isolation buffer and kept on ice. Mitochondrial protein was measured by the bicinchoninic acid method (Pierce, Rockford, Ill.). The final mitochondrial suspensions were maintained on ice and were used for measurements of oxygen consumption rate.
# The rate of mitochondrial oxygen consumption (JO2) was measured at 30° C. in an incubation chamber with a Clark-type O2 electrode filled with 2 ml of incubation medium (125 mM KCl, 10 mM Pi-Tris, 20 mM Tris-HCl, 0.1 mM EGTA, pH 7.2). All measurements were performed using mitochondria (1.0 or 0.2 mg mitochondrial protein/ml for liver and skeletal muscle) incubated either with various substrates: glutamate/malate (5 mM/2.5 mM) and succinate (5 mM), alone or in combination, palmitoyl carnitine (55 μM) and octanoyl carnitine (100 μM). For each substrate, JO2 was recorded in the presence of the substrate alone (State 2) and following the addition of 1 mM ADP (state 3). Oligomycin (1.25 μg/mg protein) was added to the mitochondrial suspension to determine the non-phosphorylating respiratory rate (state 4). The incubation medium was constantly stirred with a built-in electromagnetic stirrer and bar flea. The efficiency of the mitochondrial oxidative phosphorylation was assessed by the state 3/state 4 ratio which measures the degree of control imposed on oxidation by phosphorylation (respiratory control ratio, RCR).
# [2] = system: Wistar rats; test: Plasma concentrations of glucose, triglycerides, cholesterol, FFA and HDL in Wistar rats; conditions: for Glycerol (FIG. 60C), plasma / HDL (FIG. 60D), plasma: 21 days
# From the text: These measurements were done on venous blood of the rats the day of the sacrifice.
# At the end of the experimental period, animals were sacrificed by decapitation, in order to avoid the well-known effects of general anesthetics on mitochondrial metabolism. Blood samples were immediately collected and plasma was frozen for subsequent determination of serum metabolites and hormones. Liver, muscles and fat depots were quickly excised and weighed. Liver median lobe was rapidly freeze-clamped. Muscles (plantaris, soleus and gastrocnemius) were frozen in isopentane precooled in liquid nitrogen. Mesenteric fat consisted of adipose tissue surrounding the gastro-intestinal tract from the gastro-oesophageal sphincter to the end of the rectum with special care taken in distinguishing and removing the pancreas. Retroperitoneal fat pad was taken as the distinct depot behind each kidney along the lumbar muscles. Epididymal fat consisted of adipose tissue on top of the epididymis. For subcutaneous depot measurement, a rectangular piece of skin was taken on the right side of each animal from the median line of the abdomen between the spine and the right hip to the first rib. Interscapular brown adipose tissue was removed and dissected free from adjacent muscles and white adipose tissue. The heart ventricles, the right kidney and the spleen were also excised, weighed and frozen.
# Glucose and 3-hydroxybutyrate (3-HB) were measured enzymatically and non esterified fatty acid (NEFA) by colorimetric assay (Wako Chemicals).
# Triglycerides and cholesterol were measured by classical routine automate apparatus.
# [3] = system: GK rats; test: Oral glucose tolerance test (OGTT) and pancreas mass in GK rats; conditions: 2.5 μg/100 g BW
# Experimental: GK rats are diabetic non obese with moderate insulin-resistance, and have lower pancreatic cells than control rats. The pancreatic cells are also less efficient in the insulin secretion.
# The glucose resistance of these animals was tested by an oral glucose tolerance test (OGTT) Animals were fed with 2 g/kg BW of glucose and the Glucose concentration and Insulin concentration in blood were measured.
# The glucose concentration (FIG. 40) and insulin concentration (FIG. 41) were then measured for this time.
# [4] = system: Wistar rats; test: OGTT in Wistar rats fed a high fat high sucrose diet; conditions: 8 weeks high fat high sucrose diet, rT3 2.5 μg/100 g, vs placebo
# Experimental: A clinically relevant situation of a nutritionally-induced insulin resistance is known as a high fat high sucrose diet (HF). Therefore, the effects of rT3 on glucose and insulin response to an OGTT test were investigated. Wistar rats were fed a diet containing 45.5% fat (38% lard and 7.5% soy oil) and 34% carbohydrate (25% as sucrose) for 8 weeks. OGTT was performed as described above.
# [5] = Wistar rats, high dosage 25 μg/100 g BW
# [6] = Wistar rats, high dose 250 μg/kg BW/day, day of sacrifice, vs placebo
# [7] = Wistar rats, low dosage 2.5 μg/100 g BW
# [8] = 2 g/kg glucose, 3 hours, vs placebo
smiles,measurement,setting,value
"N[C@@H](Cc1ccc(Oc2cc(I)c(O)c(I)c2)c(I)c1)C(=O)O [rT3, 3′,5′,3-triiodothyronine]","Muscle mitochondrial respiration, non-phosphorylating (state 4)",[1],failed to substantially affect
same,"Muscle mitochondrial respiration, phosphorylating (state 3)",[1],failed to substantially affect
same,Cholesterol plasmatic concentration,"[2]; Wistar rats, 250 μg/kg BW/day, day of sacrifice, vs placebo",significantly lower
same,"Glycerol (FIG. 60C), plasma",[2]; [5],reduction
same,"HDL (FIG. 60D), plasma",[2]; [5],reduction
same,Plasma free fatty acids (FFA),[2]; [6],higher; also recorded: stimulates the liberation of FFA
same,Triglycerides plasmatic concentration,[2]; [6],significantly lower; also recorded: degradation of triglycerides
same,"Glycerol (FIG. 60C), plasma",[2]; [7],reduction
same,"HDL (FIG. 60D), plasma",[2]; [7],reduction
same,Fasting glucose plasmatic concentration,"[2]; normal (non diabetic) Wistar rats, 250 μg/kg BW/day, day of sacrifice, vs placebo",slightly increased
same,AUC of the glucose concentration after OGTT,[3]; [8],significantly reduced
same,AUC of the insulin concentration after OGTT,[3]; [8],largely enhanced
same,Kinetic of blood glucose concentration after OGTT,[3]; 5 first minutes following the OGTT,regulate more rapidly
same,Kinetic of insulin concentration after OGTT,[3]; 20 min kinetic,increase
same,Pancreas mass,[3]; vs placebo,increase
same,"Blood glucose, area under the curve (AUC) after OGTT",[4],significant lowering
same,"Blood glucose, change over time of plasma concentration after OGTT",[4],significant lowering
same,"Insulin levels, AUC after OGTT",[4],significantly lower
same,"Insulin levels, changes over time after OGTT",[4],significantly lower
